# Molecular target: T1, p38MAPKγ (MAPK12) (Homo sapiens, UniProt P53778)
# T1 construct: purchased Life Technologies
# T1 sequence (P53778 1-367): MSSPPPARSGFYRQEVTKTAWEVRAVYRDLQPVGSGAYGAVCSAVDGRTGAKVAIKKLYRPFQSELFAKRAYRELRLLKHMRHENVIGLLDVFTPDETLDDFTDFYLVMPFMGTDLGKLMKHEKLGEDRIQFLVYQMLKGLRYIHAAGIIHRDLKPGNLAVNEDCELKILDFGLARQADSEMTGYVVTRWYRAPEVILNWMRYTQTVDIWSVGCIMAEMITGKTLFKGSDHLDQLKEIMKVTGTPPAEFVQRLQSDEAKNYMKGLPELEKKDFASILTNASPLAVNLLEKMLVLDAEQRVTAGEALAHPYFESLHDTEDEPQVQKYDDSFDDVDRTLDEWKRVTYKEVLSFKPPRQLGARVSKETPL
# Experiment: p38 MAPKγ enzyme inhibition (Z-LYTE FRET)
# Type: biochemical
# Conditions: Table 2B, unit inferred; read-out: p38 MAPKγ (Enzyme Profile)
# Description: The enzyme inhibitory activities of compounds disclosed herein were determined by FRET using synthetic peptides labelled with both donor and acceptor fluorophores (Z-LYTE, Life Technologies, Paisley, UK).
# The inhibitory activities of compounds of the invention against p38MAPKγ (MAPK12: Life Technologies), were evaluated by determining the level of activation/phosphorylation of the target peptide. The enzyme (800 ng/mL, 2.5 μL) was incubated with the test compound (2.5 μL at either 40 μg/mL, 12 μg/mL, 4 μg/mL, 1.2 μg/mL, 0.4 μg/mL, 0.12 μg/mL, 0.04 μg/mL, 0.012 μg/mL, 0.004 μg/mL or 0.0012 μg/mL) for 2 h at RT. The FRET peptides (8 μM, 2.5 μL), and appropriate ATP solution (2.5 μL, 400 μM) were then added to the enzymes/compound mixtures and incubated for 1 h at RT. Development reagent (protease, 5 μL) was added for 1 h prior to detection in a fluorescence microplate reader (EnVision, Perkin Elmer).
# In all cases, the site-specific protease cleaves non-phosphorylated peptide only and eliminates the FRET signal. Phosphorylation levels of each reaction were calculated using the ratio of coumarin emission (donor) over fluorescein emission (acceptor), for which low ratios indicate high phosphorylation and high ratios indicate low phosphorylation levels.
row,SMILES,IC50 [nM]
1,Cc1ccc(-n2nc(C(C)(C)C)cc2NC(=O)Nc2ccc(OCc3ccnc(Nc4cnc(C(=O)N[C@H]5CCCN(C)C5)cn4)c3)c3ccccc23)cc1 [Example 88],233
2,Cc1ccc(-n2nc(C(C)(C)C)cc2NC(=O)Nc2ccc(OCc3ccnc(Nc4cnc(C(=O)NCCN5CCC(F)(F)CC5)cn4)c3)c3ccccc23)cc1 [Example 94],772
3,Cc1ccc(-n2nc(C(C)(C)C)cc2NC(=O)Nc2ccc(OCc3ccnc(Nc4cnc(C(=O)NCC5CCN(C)CC5)cn4)c3)c3ccccc23)cc1 [Example 81],16
4,"Cc1ccc(-n2nc(C(C)(C)C)cc2NC(=O)Nc2ccc(OCc3ccnc(Nc4cnc(C(=O)N5CCN(CCN(C)C)CC5)cn4)c3)c3ccccc23)cc1 [Example 273, 1-(3-(tert-butyl)-1-(p-tolyl)-1H-pyrazol-5-yl)-3-(4-((2-((5-(4-(2-(dimethylamino)ethyl)piperazine-1-carbonyl)pyrazin-2-yl)amino)pyridin-4-yl)methoxy)naphthalen-1-yl)urea]",4.7
5,"Cc1ccc(-n2nc(C(C)(C)C)cc2NC(=O)Nc2ccc(OCc3ccnc(Nc4cnc(C(=O)NCc5nccn5C)cn4)c3)c3ccccc23)cc1 [Example 288, 5-((4-(((4-(3-(3-(tert-butyl)-1-(p-tolyl)-1H-pyrazol-5-yl)ureido)naphthalen-1-yl)oxy)methyl)pyridin-2-yl)amino)-N-((1-methyl-1H-imidazol-2-yl)methyl)pyrazine-2-carboxamide]",> 13600
6,Cc1ccc(-n2nc(C(C)(C)C)cc2NC(=O)Nc2ccc(OCc3ccnc(Nc4cnc(C(=O)N[C@H]5CCN(C)C5)cn4)c3)c3ccccc23)cc1 [Example 83],39
7,Cc1ccc(-n2nc(C(C)(C)C)cc2NC(=O)Nc2ccc(OCc3ccnc(Nc4cnc(C(=O)N5CCC(N(C)C)CC5)cn4)c3)c3ccccc23)cc1 [Example 272],4
8,Cc1ccc(-n2nc(C(C)(C)C)cc2NC(=O)Nc2ccc(OCc3ccnc(Nc4cnc(C(=O)NC[C@H](O)CN5CCOCC5)cn4)c3)c3ccccc23)cc1 [Example 87],63
9,"CCN1CCN(C(=O)c2cnc(Nc3cc(COc4ccc(NC(=O)Nc5cc(C(C)(C)C)nn5-c5cccc(COC)c5)c5ccccc45)ccn3)cn2)CC1 [Example 283, 1-(3-(tert-butyl)-1-(3-(methoxymethyl)phenyl)-1H-pyrazol-5-yl)-3-(4-((2-((5-(4-ethylpiperazine-1-carbonyl)pyrazin-2-yl)amino)pyridin-4-yl)methoxy)naphthalen-1-yl)urea]",35
10,"COCc1cccc(-n2nc(C(C)(C)C)cc2NC(=O)Nc2ccc(OCc3ccnc(Nc4cnc(C(=O)N5CCC(N(C)C)CC5)cn4)c3)c3ccccc23)c1 [Example 284, 1-(3-(tert-butyl)-1-(3-(methoxymethyl)phenyl)-1H-pyrazol-5-yl)-3-(4-((2-((5-(4-(dimethylamino)piperidine-1-carbonyl)pyrazin-2-yl)amino)pyridin-4-yl)methoxy)naphthalen-1-yl)urea]",1.7
11,"Cc1ccc(-n2nc(C(C)(C)C)cc2NC(=O)Nc2ccc(OCc3ccnc(Nc4cncc(C5CCN(C)CC5)n4)c3)c3ccccc23)cc1 [Example 286, 1-(3-(tert-butyl)-1-(p-tolyl)-1H-pyrazol-5-yl)-3-(4-((2-((6-(1-methylpiperidin-4-yl)pyrazin-2-yl)amino)pyridin-4-yl)methoxy)naphthalen-1-yl)urea]",5.8
12,Cc1ccc(-n2nc(C(C)(C)C)cc2NC(=O)Nc2ccc(OCc3ccnc(Nc4cnc(C(=O)N[C@H]5COC[C@@H]5N5CCOCC5)cn4)c3)c3ccccc23)cc1 [Example 93],103
13,COCc1cccc(-n2nc(C(C)(C)C)cc2NC(=O)Nc2ccc(OCc3ccnc(Nc4cnc(C(=O)NCC5CCN(C)CC5)cn4)c3)c3ccccc23)c1 [Example 99],11
14,Cc1ccc(-n2nc(C(C)(C)C)cc2NC(=O)Nc2ccc(OCc3ccnc(Nc4cnc(C(=O)NC5CCN(CCO)CC5)cn4)c3)c3ccccc23)cc1 [Example 103],72
15,Cc1ccc(-n2nc(C(C)(C)C)cc2NC(=O)Nc2ccc(OCc3ccnc(Nc4cnc(C(=O)N[C@@H]5CCN(C)C5)cn4)c3)c3ccccc23)cc1 [Example 82],46

# From patent US11142515B2, “Pyrazolyl-ureas as kinase inhibitors” (RESPIVERT LIMITED, priority 2014, dated 2021)
